According to paper PMC3076737 (Journal of medicinal chemistry, 2010):

What was measured:
CB1 receptor [1] = target: T1, CB1 receptor (Homo sapiens, UniProt P21554); type: cell-based; conditions: data not shown
CB1 receptor [2] = target: T1, CB1 receptor; type: binding; conditions: data not shown
CB1 receptor [3] = target: T1, CB1 receptor; experiment: GTP-γ-S assay of compounds 3 and 4, preparation not stated, data not shown; type: biochemical
CB1 receptor [4] = target: T1, CB1 receptor; experiment: Competitive displacement binding vs [3H]CP55,940 in hCB1 membranes; conditions: both radioligands
human CB2 receptor = human CB2 receptor (Homo sapiens, UniProt P34972); experiment: Competitive displacement binding vs [3H]CP55,940 in hCB2 membranes; conditions: read-out: Displacement vs. 3H-CP55,940: Ki (nM) in hCB2; Table 2
Chain of human CB2 receptor (P34972 whole entry): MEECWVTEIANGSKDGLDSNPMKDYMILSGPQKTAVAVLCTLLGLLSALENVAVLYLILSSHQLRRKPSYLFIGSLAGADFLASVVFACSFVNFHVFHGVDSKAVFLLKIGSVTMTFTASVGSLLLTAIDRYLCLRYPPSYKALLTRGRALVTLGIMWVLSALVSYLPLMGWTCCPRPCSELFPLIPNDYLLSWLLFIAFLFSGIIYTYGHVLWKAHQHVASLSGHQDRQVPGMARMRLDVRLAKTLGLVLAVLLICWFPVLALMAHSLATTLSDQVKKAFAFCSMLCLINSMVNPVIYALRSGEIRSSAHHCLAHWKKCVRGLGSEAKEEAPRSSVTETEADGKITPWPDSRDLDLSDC

T1 sequence (P21554 whole entry): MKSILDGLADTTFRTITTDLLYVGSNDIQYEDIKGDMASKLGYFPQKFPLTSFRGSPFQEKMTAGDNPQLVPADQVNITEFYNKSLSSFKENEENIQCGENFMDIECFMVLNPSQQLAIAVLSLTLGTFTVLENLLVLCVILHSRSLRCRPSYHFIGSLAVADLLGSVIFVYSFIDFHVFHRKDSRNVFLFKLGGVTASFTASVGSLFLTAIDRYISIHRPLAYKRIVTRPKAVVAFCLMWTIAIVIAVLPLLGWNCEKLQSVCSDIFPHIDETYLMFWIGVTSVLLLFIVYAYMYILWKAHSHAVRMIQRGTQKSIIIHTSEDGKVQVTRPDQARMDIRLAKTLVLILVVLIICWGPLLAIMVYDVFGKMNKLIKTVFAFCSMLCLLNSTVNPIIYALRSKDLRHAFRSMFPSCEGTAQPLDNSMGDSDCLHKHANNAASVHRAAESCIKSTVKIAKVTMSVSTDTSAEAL

| Activity in calcium assay (CB1 receptor [1]) | Affinity in radiolabeled binding (CB1 receptor [2]) | Activity in GTP-γ-S assay (CB1 receptor [3]) | Ki (human CB2 receptor) [nM] | also measured | Compound |
| --- | --- | --- | --- | --- | --- |
| inactive | low affinity | inactive | – | – | Cc1c(C(=O)NCCOCCOCCOCCNC(=O)c2nn(-c3ccc(Cl)cc3Cl)c(-c3ccc(Cl)cc3)c2C)nn(-c2ccc(Cl)cc2Cl)c1-c1ccc(Cl)cc1 [Compound 3, 5-(4-chlorophenyl)-N-{13-[5-(4-chlorophenyl)-1-(2,4-dichlorophenyl)-4-methyl-1H-pyrazol-3-yl]-13-oxo-3,6,9-trioxa-12-azatridec-1-yl}-1-(2,4-dichlorophenyl)-4-methyl-1H-pyrazole-3-carboxamide] |
| inactive | low affinity | inactive | – | – | Cc1c(C(=O)NCC(=O)NCC(=O)NCCN)nn(-c2ccc(Cl)cc2Cl)c1-c1ccc(Cl)cc1 [Compound 4, N-{[5-(4-chlorophenyl)-1-(2,4-dichlorophenyl)-4-methyl-1H-pyrazol-3-yl]carbonyl}glycyl-N-(2-aminoethyl)glycinamide] |
| – | – | – | – | Affinity higher than the corresponding monovalent control (7d) (CB1 receptor [4]): ~4 fold | Cc1c(C(=O)NCCCCCCCNCCCCCCCNC(=O)c2nn(-c3ccc(Cl)cc3Cl)c(-c3ccc(Cl)cc3)c2C)nn(-c2ccc(Cl)cc2Cl)c1-c1ccc(Cl)cc1 [Compound 5d, N,N′-(iminodiheptane-7,1-diyl)bis[5-(4-chlorophenyl)-1-(2,4-dichlorophenyl)-4-methyl-1H-pyrazole-3-carboxamide]] |
| – | – | – | > 2500 | – | Cc1c(C(=O)NCCCCCCCCCN(C)CCCCCCCCCNC(=O)c2nn(-c3ccc(Cl)cc3Cl)c(-c3ccc(Cl)cc3)c2C)nn(-c2ccc(Cl)cc2Cl)c1-c1ccc(Cl)cc1 [Compound 6c, N,N′-[(methylimino)dinonane-9,1-diyl]bis[5-(4-chlorophenyl)-1-(2,4-dichlorophenyl)-4-methyl-1H-pyrazole-3-carboxamide]] |
| – | – | – | > 2500 | – | Cc1c(C(=O)NCCCCCCCCCCCN(C)CCCCCCCCCCCNC(=O)c2nn(-c3ccc(Cl)cc3Cl)c(-c3ccc(Cl)cc3)c2C)nn(-c2ccc(Cl)cc2Cl)c1-c1ccc(Cl)cc1 [Compound 6d, N,N′-[(methylimino)diundecane-11,1-diyl]bis[5-(4-chlorophenyl)-1-(2,4-dichlorophenyl)-4-methyl-1H-pyrazole-3-carboxamide]] |
| – | – | – | > 2500 | – | Cc1c(C(=O)NCCCCCN(C)CCCCCN)nn(-c2ccc(Cl)cc2Cl)c1-c1ccc(Cl)cc1 [Compound 8a, N-{5-[(5-aminopentyl)(methyl)amino]pentyl}-5-(4-chlorophenyl)-1-(2,4-dichlorophenyl)-4-methyl-1H-pyrazole-3-carboxamide] |
